Measurements from patent publication US20030006516A1, “Optical data storage medium containing a heterocyclic azo dye as the light-absorbing compound in the information layer” (priority 2001, published 2003).

Experiments:
Assay type in all cases: physicochemical
[1] = Solubility in TFP (2,2,3,3-tetrafluoropropanol)
Source text: Solubility: >2% in TFP (2,2,3,3-tetrafluoropropanol)

[2] = Film formation (morphology of the dye layer)
Source text: In addition to the abovementioned optical properties, the recordable information layer consisting of light-absorbing organic substances must have a morphology which is as amorphous as possible, in order to keep the noise signal during recording or reading as small as possible. For this purpose it is particularly preferable, when applying the substances by spin-coating from a solution or by vapour deposition and/or sublimation, to prevent crystallization of the light-absorbing substances during the subsequent top-coating with metallic or dielectric layers in vacuo.

[3] = Absorption spectrum measured in solution (λmax, ε, slope width, solvatochromism)
Method: For a recordable optical data storage medium according to the invention which is recorded on and read using light from a blue laser, such heterocyclic azo dyes are preferred whose absorption maximum λmax2 is in the range from 420 to 550 nm, […] half the extinction value at λmax2, and the wavelength λ1/10, at which the extinction on the short-wavelength slope of the absorption maximum of the wavelength λmax2 is a tenth of the extinction value at λmax2, are preferably in each case no further than 80 nm away from each other.
For a recordable optical data storage medium according to the invention which is recorded on and read using light from a red laser, such heterocyclic azo dyes are preferred whose absorption maximum λmax2 is in the range from 500 to 650 nm, wherein the wavelength λ1/2 at which the extinction on the long-wavelength slope of the absorption maximum of the wavelength λmax2 is half the extinction value at λmax2, and the wavelength λ1/10, at which the extinction on the long-wavelength slope of the absorption maximum of the wavelength λmax2 is a tenth of the extinction value at λmax2, are preferably in each case no further than 60 nm away from each other.
At the absorption maximum λmax2 the heterocyclic azo dyes preferably have a molar extinction coefficient E of >25000 l/mol cm, preferably >35000 l/mol cm, particularly preferably >40000 l/mol cm and very particularly preferably >50000 l/mol cm.
The absorption spectra are, for example, measured in solution.
Suitable heterocyclic azo dyes having the required spectral properties are in particular those in which the change in the dipole moment Δμ=|μg−μag|, i.e. the positive difference between the dipole moments in the ground state and the first excited state is as small as possible, i.e. preferably <5 D, and particularly preferably <2 D. One method of determining such a change in the dipole moment Δμ is described for example in F. Würthner et al., Angew. Chem. 1997, 109, 2933 and in the literature cited therein. Low solvatochromism (dioxan/DMF) is also a suitable criterion for selection. Preferred heterocyclic azo dyes are those whose solvatochromism Δλ=|λDMFλdioxan|, i.e. the positive difference between the absorption wavelengths in the solvents dimethyl formamide and dioxan is <20 nm, particularly preferably <10 nm, and very particularly preferably <5 nm.

In the case of CC(C)N(c1nnc(/N=N/c2cnc(N(C)C)s2)s1)C(C)C [Example 1], the Solubility [1] is reported as over 2%, the film [2] is reported as “a glassy film” and the “λ1/2-λ1/10 (long-wave slope)” value ([3]; Example 1, long-wave slope) is reported as 22 nm. For the same compound, the ε ([3]; Example 1, molar extinction coefficient at λmax) was 44140 L/mol/cm, the λmax ([3]; Example 1, solvent not given) was 496 nm and the “Δλ=|λDMF−λdioxan|” value ([3]; solvatochromism DMF vs dioxan) was 2 nm.
